For this experiment, the target named is human IDO1 (Homo sapiens, UniProt P14902). Briefly: Assessment of human IDO-1 inhibitory activity in HEK cells (human IDO1/HEK293 cells, kynurenine read-out with Ehrlich reagent, absorbance 490 nm). Type of experiment: cell-based. On the set-up: expressed in transfected cells. The following applies: HEK Human IDO-1 cellular assay. Put shortly:
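HEK293 cells stably expressing human IDO1 were seeded at 10,000 per well in phenol red-free RPMI with 10% FBS, treated with compound for 20 h at 37 °C. Kynurenine was measured after TCA (0.2% final) and 30 min at 50 °C, using Ehrlich reagent, A490. IC50 normalised to DMSO (0%) and 500 nM reference standard (100%).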
Chain of human IDO1 (P14902 whole entry): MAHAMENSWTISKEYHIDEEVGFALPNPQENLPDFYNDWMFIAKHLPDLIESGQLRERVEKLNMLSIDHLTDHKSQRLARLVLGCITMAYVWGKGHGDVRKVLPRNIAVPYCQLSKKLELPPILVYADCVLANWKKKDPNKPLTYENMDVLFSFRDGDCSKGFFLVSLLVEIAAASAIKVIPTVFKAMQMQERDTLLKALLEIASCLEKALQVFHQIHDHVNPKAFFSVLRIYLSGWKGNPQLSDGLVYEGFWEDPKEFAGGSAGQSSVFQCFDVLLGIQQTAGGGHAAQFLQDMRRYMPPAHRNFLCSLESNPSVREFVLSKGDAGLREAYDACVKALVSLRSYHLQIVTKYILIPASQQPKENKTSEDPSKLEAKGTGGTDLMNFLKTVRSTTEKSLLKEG
For orientation: IC50 means the concentration at which inhibition is half-maximal. As to `CCC(CC(=O)O)c1ccc(N(CC2CC2)C(C)C)c(Nc2ccc(Cl)cc2)c1` (single isomer, unassigned) [Example 714, 3-(3-((4-chlorophenyl)amino)-4-((cyclopropylmethyl) (isopropyl)amino)phenyl) pentanoic acid], the IC50 is under 0.005 µM.

On to `CCC(CC(=O)O)c1ccc(N(CC(C)C)C(C)C)c(Nc2ccc(Cl)cc2)c1` (single isomer, unassigned) [Example 727, 3-(3-((4-Chlorophenyl)amino)-4-(isobutyl(isopropyl)amino)phenyl)pentanoic acid], for which the half-maximal inhibitory concentration (IC50) was under 0.005 µM.

Consider `CCc1cnc(Nc2cc([C@H](CC)CC(=O)O)ccc2N(CC)C2CCCCC2)nc1` (single isomer, unassigned) [Example 286], for which the IC50 is over 0.05 µM.

As to `CCOc1ccc(NC(=O)Nc2cc(C(COC)CC(=O)O)cc(F)c2N(CC(C)C)CC(C)C)c(F)c1` (single isomer, unassigned) [Example 1178, 3-(4-(Diisobutylamino)-3-(3-(4-ethoxy-2-fluorophenyl)ureido)-5-fluorophenyl)-4-methoxybutanoic acid], the IC50 is under 0.05 µM.

`COCC(CC(=O)O)c1ccc(N(CC(C)C)C2CCCCC2)c(NC(=O)Nc2ccc(C)cc2)c1` (single isomer, unassigned) [989-1]: the IC50 is under 0.005 µM.

Take `CCC(CC(=O)O)c1cc(F)c(N(CC(C)C)CC(C)C)c(Nc2ccc(Cl)c(OCC(F)(F)F)c2)c1` (single isomer, unassigned) [Example 102, 3-(3-((4-chloro-3-(2,2,2-trifluoroethoxy)phenyl)amino)-4-(diisobutylamino)-5-fluorophenyl)pentanoic acid]: the IC50 was under 0.005 µM.

Consider `COCC(CC(=O)O)c1ccc(N(CC(C)C)C2CCCCC2)c(NC(=O)Nc2cncnc2)c1` (racemic) [Example 990, (+/−)-3-(4-(Cyclohexyl(isobutyl)amino)-3-(3-(pyrimidin-5-yl)ureido)phenyl)-4-methoxybutanoic acid], for which the IC50 was under 0.05 µM.

On to `COCC(CC(=O)O)c1ccc(N(CC2CC2)C2CCOCC2)c(Nc2ccc(Cl)cc2)c1` (single isomer, unassigned) [Example 690, 3-(3-((4-chlorophenyl)amino)-4-((cyclopropylmethyl) (tetrahydro-2H-pyran-4-yl)amino)phenyl)-4-methoxybutanoic acid], for which the IC50 is over 0.05 µM.

Turning to `CCC(CC(=O)O)c1ccc(N2CCC[C@@H]2C(C)(C)O)c(Nc2ccc(F)cc2)c1` (single isomer, unassigned) [Example 784], the IC50 is over 0.05 µM.

For the molecule `CCCN(c1ccc([C@@H](CC)CC(=O)O)cc1Nc1ccc2nc(C)sc2c1)C1CCOCC1` (single isomer, unassigned) [Example 537], the IC50 is under 0.005 µM.

Consider `COCC(CC(=O)O)c1ccc(N(CC2CC2)C2CCOCC2)c(Nc2ccc(C#N)c(C)c2)c1` (single isomer, unassigned) [Example 692, 3-(3-((4-cyano-3-methylphenyl)amino)-4-((cyclopropylmethyl) (tetrahydro-2H-pyran-4-yl)amino)phenyl)-4-methoxybutanoic acid], for which the IC50 was under 0.05 µM.

As for `CC[C@@H](CC(=O)O)c1ccc(N(CC)C2CCCCC2)c(Nc2ccc(C#N)cc2)c1` (single isomer, unassigned) [Example 283], the IC50 is under 0.005 µM.

Regarding `CCOc1ccc(NC(=O)Nc2cc(C(COC)CC(=O)O)ccc2N(CC(C)C)C2CCOCC2)c(F)c1` (single isomer, unassigned) [Example 1222, 3-(3-(3-(4-Ethoxy-2-fluorophenyl)ureido)-4-(isobutyl(tetrahydro-2H-pyran-4-yl)amino)phenyl)-4-methoxybutanoic acid], the IC50 was under 0.05 µM.

For the molecule `CC(C)CN(c1ccc(C(C)CC(=O)O)cc1Nc1nc2ccccc2o1)C1CCOCC1` (single isomer, unassigned) [Example 969, 3-(3-(Benzo[d]oxazol-2-ylamino)-4-(isobutyl(tetrahydro-2H-pyran-4-yl)amino)phenyl)butanoic acid], the IC50 is over 0.05 µM.

Take `CC[C@H](CC(=O)O)c1ccc(N(CC)C2CCCCC2)c(Nc2ccc(Cl)cc2)c1` (single isomer, unassigned) [Example 285]: the IC50 was under 0.005 µM.

With `CC[C@H](CC(=O)O)c1ccc(N(CC)C2CCOCC2)c(Nc2cn3ccnc3cn2)c1` (single isomer, unassigned) [Example 523], the 50% inhibitory concentration (IC50) was over 0.05 µM.

In the case of `CCc1ccc(Nc2cc([C@@H](CC)CC(=O)O)ccc2N(CC)C2CCOCC2)cc1` (single isomer, unassigned) [Example 477], the IC50 is under 0.005 µM.

Take `COCC(CC(=O)O)c1cc(F)c(N(CC(C)C)CC(C)C)c(NC(=O)Nc2cncnc2)c1` (single isomer, unassigned) [Example 1196, 3-(4-(Diisobutylamino)-3-fluoro-5-(3-(pyrimidin-5-yl)ureido)phenyl)-4-methoxybutanoic acid]: the IC50 was over 0.05 µM.

Take `CCCN(CC1CC1)c1ccc(C(CC)CC(=O)O)cc1Nc1ccc2c(c1)OC(F)(F)O2` (single isomer, unassigned) [Example 662, 3-(4-((cyclopropylmethyl)(propyl)amino)-3-((2,2-difluorobenzo[d] [1,3]dioxol-5-yl)amino)phenyl) pentanoic acid]: the IC50 is under 0.005 µM.

With `CCN(c1ccc(C(CC(=O)O)c2ccccc2)cc1NC(=O)Nc1cc(C)on1)C1CCOCC1` (single isomer, unassigned) [Example 587, 3-(4-(ethyl(tetrahydro-2H-pyran-4-yl)amino)-3-(3-(5-methylisoxazol-3-yl)ureido)phenyl)-3-phenylpropanoic acid], the concentration for half-maximal inhibition (IC50) is over 0.05 µM.

Turning to `CCC(CC(=O)O)c1cc(F)c(N(CC(C)C)CC(C)C)c(Nc2ccc3c(c2)OC(F)(F)O3)c1` (single isomer, unassigned) [Example 101, 3-(3-((2,2-difluorobenzo [d][1,3]dioxol-5-yl)amino)-4-(diisobutylamino)-5-fluorophenyl)pentanoic acid], the IC50 was under 0.005 µM.

For the molecule `CCN(c1ccc(C(CC(=O)O)C2CC2)cc1Nc1ccc(C#N)cc1)C1CCOCC1` (single isomer, unassigned) [Example 37, 3-(3-((4-cyanophenyl)amino)-4-(ethyl(tetrahydro-2H-pyran-4-yl)amino)phenyl)-3-cyclopropylpropanoic acid], the half-maximal inhibitory concentration (IC50) is under 0.005 µM.

`Cc1cc(NC(=O)Nc2cc(C(CC(=O)O)C3CC3)ccc2N(CC(C)C)C2CCOCC2)no1` (racemic) [Example 1200, (+/−)-3-Cyclopropyl-3-(4-(isobutyl(tetrahydro-2H-pyran-4-yl)amino)-3-(3-(5-methylisoxazol-3-yl)ureido)phenyl)propanoic acid]: the 50% inhibitory concentration (IC50) is under 0.05 µM.

In the case of `CCC(CC(=O)O)c1ccc(N(CC(C)C)C2CCCCC2)c(NC(=O)c2ccc(Oc3ccccc3)cc2)c1` (racemic) [Example 1074, 3-(4-(Cyclohexyl(isobutyl)amino)-3-(4-phenoxybenzamido)phenyl)pentanoic acid], the concentration for half-maximal inhibition (IC50) is over 0.05 µM.

Turning to `CCN(c1ccc([C@H](COC)CC(=O)O)cc1NC(=O)Nc1ccc(Cl)cc1F)C1CCOCC1` (single isomer, unassigned) [Example 434], the 50% inhibitory concentration (IC50) was under 0.05 µM.

On to `CCN(c1ccc([C@H](COC)CC(=O)O)cc1NC(=O)Nc1cnc(C)nc1)C1CCOCC1` (single isomer, unassigned) [Example 438], for which the IC50 is over 0.05 µM.

`CCc1ccc(Nc2cc([C@@H](COC)CC(=O)O)ccc2N(CC)C2CCOCC2)cc1` (single isomer, unassigned) [Example 374]: the IC50 is under 0.005 µM.

`CCCN(CC1CC1)c1ccc(C(CC)CC(=O)O)cc1Nc1cnc(OCC)nc1` (single isomer, unassigned) [Example 660, 3-(4-((cyclopropylmethyl)(propyl)amino)-3-((2-ethoxypyrimidin-5-yl)amino)phenyl)pentanoic acid]: the IC50 was under 0.005 µM.

Regarding `CC[C@@H](CC(=O)O)c1ccc(N(CC)C2CCOCC2)c(NC(=O)Nc2cc(C)on2)c1` (single isomer, unassigned) [Example 497], the IC50 was over 0.05 µM.

Consider `COCC(CC(=O)OC)c1ccc(N(CC(C)C)C2CCC(OC)CC2)c(NC(=O)Nc2ccc(C)cc2)c1` (racemic) [Example 1005, (+/−)-Methyl 3-(4-(isobutyl((1R,4R)-4-methoxycyclohexyl)amino)-3-(3-(p-tolyl)ureido)phenyl)-4-methoxybutanoate], for which the 50% inhibitory concentration (IC50) was over 0.05 µM.

`CCOc1ncc(Nc2cc([C@@H](CC)CC(=O)O)ccc2N(CC)C2CCOCC2)cn1` (single isomer, unassigned) [Example 455]: the half-maximal inhibitory concentration (IC50) was under 0.05 µM.

On to `CCC(CC(=O)O)c1ccc(N2CCC[C@H]2C(C)(C)F)c(Nc2ccc3nc(C)sc3c2)c1` (single isomer, unassigned) [Example 794], for which the concentration for half-maximal inhibition (IC50) was under 0.05 µM.

Take `CCC(CC(=O)O)c1ccc(N(CC(C)C)C2CCCCC2)c(NC(=O)Cc2cc(F)ccc2F)c1` (racemic) [Example 1087]: the 50% inhibitory concentration (IC50) is under 0.005 µM.

Consider `CCc1cnc(Nc2cc(C(CC)CC(=O)O)ccc2N(CC(C)C)C2CCCCC2)nc1` (single isomer, unassigned) [Example 302, 3-(4-(cyclohexyl(isobutyl)amino)-3-((5-ethylpyrimidin-2-yl)amino)phenyl)pentanoic acid], for which the half-maximal inhibitory concentration (IC50) is under 0.005 µM.

Take `CCOc1ccc(Nc2cc(C(CC)CC(=O)O)ccc2N2CCC[C@H]2C(C)(C)O)cc1` (single isomer, unassigned) [Example 833]: the IC50 is over 0.05 µM.

`CCCN(CC1CC1)c1ccc(C(CC)CC(=O)O)cc1Nc1ccc2nc(C)sc2c1` (single isomer, unassigned) [Example 661, 3-(4-((cyclopropylmethyl)(propyl)amino)-3-((2-methylbenzo[d]thiazol-6-yl)amino)phenyl) pentanoic acid]: the IC50 was over 0.05 µM.

As for `CC[C@H](CC(=O)O)c1ccc(N(CC(C)(C)O)C2CCCCC2)c(Nc2ccc(Cl)cc2)c1` (single isomer, unassigned) [Example 242], the IC50 is under 0.005 µM.

Values taken from patent US9790169B2, “IDO inhibitors” (BRISTOL-MYERS SQUIBB COMPANY, priority 2015, dated 2017).
